{"source": "patent US20250145588A1", "about": "“CRYSTAL FORM OF TAVAPADON, AND PREPARATION METHOD THEREFOR AND USE THEREOF” (CRYSTAL PHARMACEUTICAL (SUZHOU) CO., LTD., priority 2022, published 2025)", "format_in_all_cases": "physicochemical", "key": {"[1]": {"test": "Storage stability of solid forms (crystalline form by XRPD, chemical purity by HPLC)", "conditions": "for Purity after storage: HPLC", "procedure": "XRPD patterns in the present disclosure were acquired by a Bruker X-ray powder diffractometer. The parameters of the X-ray powder diffraction method of the present disclosure are as follows: • X-Ray source: Cu, Kα • Kα1 (Å): 1.54060; Kα2 (Å): 1.54439 • Kα2/Kα1 intensity ratio: 0.50\nA certain amount of the prior art solid obtained in Example 4 was packaged with sealed container (with desiccant inside), and stored under 40° C./75% RH. The solid form before and after storage was confirmed by XRPD.\nA certain amount of Form CSI was packaged with corresponding package conditions, and then stored under 25° C./60% RH, 40° C./75% RH and 60° C./75% RH. Crystalline form and chemical purity were checked by XRPD and HPLC, respectively. Form CSI kept stable for at least 6 months when stored at 25° C./60% RH open and sealed (with desiccants) package, 40° C./75% RH open and sealed (with desiccants) package, and 60° C./75% RH sealed (with desiccants) package.\nA certain amount of Form CSII sample was packaged with corresponding package conditions, and then stored at 25° C./60% RH and 40° C./75% RH. Crystalline form was checked by XRPD. Form CSII kept stable for at least 1 month for both open and sealed (with desiccants) package conditions at 25° C./60% RH and 40° C./75% RH."}, "[2]": {"test": "Hygroscopicity and humidity stability by DVS (0% RH-95% RH-0% RH cycle at 25° C., XRPD before and after)", "conditions": "for Hygroscopicity (in words) / Weight gain (water uptake) at 80% RH: DVS; for Form change after DVS test (humidity stability): one cycle 0% RH-95% RH-0% RH, XRPD", "procedure": "DVS data in the present disclosure were measured via an SMS (Surface Measurement Systems Ltd.) intrinsic DVS instrument. The instrument control software is DVS-Intrinsic control software. Typical Parameters for DVS test are as follows: • Temperature: 25° C. • Gas and flow rate: N2, 200 mL/minRH range: 0% RH to 95% RH\nThe hygroscopicity of Form CSI was determined by a DVS instrument with a certain amount of sample. The mass at each relative humidity was recorded during a cycle of 0% RH-95% RH-0% RH at 25° C., and XRPD was collected before and after DVS test.\nThe hygroscopicity of Form CSII was determined by DVS instrument with a certain amount of sample. The mass at each relative humidity was recorded during the cycle of 0% RH-95% RH-0% RH at 25° C., and XRPD was tested before and after DVS."}, "[3]": {"test": "Physical stability upon mechanical force (ball-milling, XRPD before and after grinding)", "conditions": "500 rpm, 5 minutes", "procedure": "Form CSI was ground using a ball-milling at a vibration speed of 500 rpm for 5 minutes.\nForm CSII was ground using a ball-milling at a vibration speed of 500 rpm for 5 minutes."}}, "note": "Entries after “also recorded” stand apart in the source; their conditions may differ.", "data": [{"smiles": "Cc1cc(Oc2ncccc2C(F)(F)F)ccc1-c1c(C)c(=O)[nH]c(=O)n1C", "note": "(single isomer, unassigned) [Form CSII]", "values": [{"measurement": "Solid form after storage", "setting": "[1]; 25° C./60% RH, sealed (with desiccants), 1 month, XRPD", "result": "Form CSII"}, {"measurement": "Solid form after storage", "setting": "[1]; 40° C./75% RH, sealed (with desiccants), 1 month, XRPD", "result": "remains unchanged; also recorded: Form CSII"}, {"measurement": "Time kept stable on storage", "setting": "[1]; open and sealed (with desiccants) package at 25° C./60% RH and 40° C./75% RH", "result": "at least 1 month"}, {"measurement": "Hygroscopicity (in words)", "setting": "[2]", "result": "almost non hygroscopic"}, {"measurement": "Weight gain (water uptake) at 80% RH", "setting": "[2]", "result": 0.19, "unit": "%"}, {"measurement": "Form change after DVS test (humidity stability)", "setting": "[2]", "result": "No form change; also recorded: remains unchanged"}, {"measurement": "Form change after grinding", "setting": "[3]", "result": "no form change; also recorded: doesn't change after grinding"}]}, {"smiles": "Cc1cc(Oc2ncccc2C(F)(F)F)ccc1-c1c(C)c(=O)[nH]c(=O)n1C", "note": "(single isomer, unassigned) [Form CSI]", "values": [{"measurement": "Time kept stable on storage", "setting": "[1]; 25° C./60% RH open and sealed (with desiccants), 40° C./75% RH open and sealed (with desiccants), 60° C./75% RH sealed (with desiccants)", "result": "at least 6 months"}, {"measurement": "Purity after storage", "setting": "[1]; 25° C./60% RH, open, 6 months", "result": 99.85, "unit": "%"}, {"measurement": "Solid form after storage", "setting": "[1]; 25° C./60% RH, open, 6 months, XRPD", "result": "Form CSI"}, {"measurement": "Purity after storage", "setting": "[1]; 25° C./60% RH, sealed (with desiccants), 6 months", "result": 99.85, "unit": "%"}, {"measurement": "Solid form after storage", "setting": "[1]; 25° C./60% RH, sealed (with desiccants), 6 months, XRPD", "result": "Form CSI"}, {"measurement": "Time remaining unchanged on storage", "setting": "[1]; 40° C./75% RH", "result": "at least 6 months"}, {"measurement": "Purity after storage", "setting": "[1]; 40° C./75% RH, open, 6 months", "result": 99.85, "unit": "%"}, {"measurement": "Solid form after storage", "setting": "[1]; 40° C./75% RH, open, 6 months, XRPD", "result": "Form CSI"}, {"measurement": "Purity after storage", "setting": "[1]; 40° C./75% RH, sealed (with desiccants), 6 months", "result": 99.85, "unit": "%"}, {"measurement": "Solid form after storage", "setting": "[1]; 40° C./75% RH, sealed (with desiccants), 6 months, XRPD", "result": "Form CSI"}, {"measurement": "Purity after storage", "setting": "[1]; 60° C./75% RH, sealed (with desiccants), 6 months", "result": 99.85, "unit": "%"}, {"measurement": "Solid form after storage", "setting": "[1]; 60° C./75% RH, sealed (with desiccants), 6 months, XRPD", "result": "Form CSI"}, {"measurement": "Time remaining unchanged on storage", "setting": "[1]; 60° C./75% RH, sealed package", "result": "at least 6 months"}, {"measurement": "Hygroscopicity (in words)", "setting": "[2]", "result": "almost non hygroscopic"}, {"measurement": "Weight gain (water uptake) at 80% RH", "setting": "[2]", "result": 0.05, "unit": "%"}, {"measurement": "Form change after DVS test (humidity stability)", "setting": "[2]", "result": "No form change; also recorded: remains unchanged"}, {"measurement": "Form change after grinding", "setting": "[3]", "result": "no form change; also recorded: doesn't change after grinding"}]}, {"smiles": "Cc1cc(Oc2ncccc2C(F)(F)F)ccc1-c1c(C)c(=O)[nH]c(=O)n1C", "note": "[prior art solid, reference compound]", "values": [{"measurement": "Solid form change after storage", "setting": "[1]; 40° C./75% RH, sealed container with desiccant, 10 days, XRPD", "result": "undergoes crystal transformation; also recorded: undergoes crystalline transformation"}]}]}
